Assay results as given in ChEMBL document CHEMBL4257587 (J Med Chem, 2018).
Values after ≈ are worked out from the molar mass of the structure shown.

What was measured:
[1] = tested on: Mycobacterium tuberculosis; experiment: Antimycobacterial activity against Mycobacterium tuberculosis H37Rv ATCC 25618 after 6 days by resazurin-based assay; format: functional; conditions: H37Rv ATCC 25618, 144 h
[2] = Intrinsic clearance in mouse liver microsomes at 0.5 uM preincubated with NADPH and measured up to 30 mins by LC-MS/MS analysis; format: ADME, microsome
[3] = Intrinsic clearance in human liver microsomes at 0.5 uM preincubated with NADPH and measured up to 30 mins by LC-MS/MS analysis; format: ADME, microsome
HepG2 [4] = experiment: Cytotoxicity against human HepG2 cells assessed as effect on membrane permeability after 48 hrs by TOTO-3 iodide-staining based cell health assay; format: ADME; conditions: HepG2, 48 h
HepG2 [5] = experiment: Cytotoxicity against human HepG2 cells assessed as effect on mitochondrial membrane potential after 48 hrs by TMRM-staining based cell health assay; format: ADME; conditions: HepG2, 48 h
HepG2 [6] = experiment: cells; format: ADME, cell-based; conditions: Homo sapiens, HepG2, 48 h
Description: Cytotoxicity against human HepG2 cells assessed as effect on nuclear morphology after 48 hrs by Hoechst 33342-staining based cell health assay

physchem = conditions: buffer, pH 7.4

SMILES	MIC90 [1] [µM]	CLH [2] [mL/min/g]	CLH [3] [mL/min/g]	IC50 (HepG2 [4]) [µM]	IC50 (HepG2 [5]) [µM]	IC50 (HepG2 [6]) [µM]	solubility kinetic at 1 h (physchem) [µM]
c1cc2c(s1)CCOC21CCNCC1	> 5						
FS(F)(F)(F)(F)c1ccc(CN2CCC3(CC2)OCCc2sccc23)cc1	0.14 (≈ 0.0596 µg/mL)	18.2	3				
CC(C)(C)c1ccc(CN2CCC3(CC2)OCCc2sccc23)cc1	0.02 (≈ 0.00711 µg/mL)	> 30	9.9				
CC(C)(C)c1ccc(CN2CCC3(CCOCC3)CC2)cc1	5 (≈ 1.51 µg/mL)	2.25	0.95	> 200	> 200	> 200	≥ 399
FC(F)(F)Oc1ccc(Oc2ccc(CN3CCC4(CCCCC4)CC3)cc2)cc1	0.1 (≈ 0.0419 µg/mL)	2.8	0.5	28.3	21.8	25.9	< 1
Cc1ccc(CN2CCC3(CC2)OCCc2sccc23)cc1	0.2 (≈ 0.0627 µg/mL)	> 30	22.5				
c1cc2c(s1)CCOC21CCN(Cc2ccc3c(c2)CCCO3)CC1	0.23 (≈ 0.0818 µg/mL)	> 30	2.9				
FC(F)(F)Oc1ccc(Oc2ccc(CN3CCC4(CCCCO4)CC3)cc2)cc1	0.31 (≈ 0.131 µg/mL)	1.2	1.7	43.7	46.3	38.7	< 1
c1ccc(CN2CCC3(CC2)OCCc2sccc23)cc1	> 5						
c1ccc2oc(CN3CCC4(CC3)OCCc3sccc34)cc2c1	2.7 (≈ 0.917 µg/mL)						
CC1(CCNCc2ccc3c(c2)OCCO3)OCCc2sccc21 (configuration not stated)	> 5						
Cc1cc(CN2CCC3(CC2)OCCc2sccc23)c(C)n1-c1cccnc1	14 (≈ 5.51 µg/mL)						
O=C(Nc1ccc2c(c1)OCCO2)N1CCC2(CC1)OCCc1sccc12	> 10						
CC(C)(C)c1ccc(CN2CCC3(CC2)OCCCO3)cc1	2.5 (≈ 0.759 µg/mL)	13.5	1.4	> 200	> 200	> 200	374 (≈ 113 µg/mL)
c1ccc2c(c1)CCOC21CCN(Cc2ccc3c(c2)OCCO3)CC1	0.94 (≈ 0.33 µg/mL)						
CN1CCCC2(CCN(Cc3ccc(Oc4ccc(OC(F)(F)F)cc4)cc3)CC2)C1	2.5 (≈ 1.09 µg/mL)			8	12.2	6.9	205 (≈ 89.1 µg/mL)
c1cc2c(s1)CCOC21CCN(Cc2ccc3c(c2)OCCO3)C1 (configuration not stated)	> 5						
c1cc2c(s1)CCOC21CCN(Cc2cnc3c(c2)OCCO3)CC1	> 5						
Cn1cc(CN2CCC3(CC2)OCCc2sccc23)c2ccccc21	0.63 (≈ 0.222 µg/mL)	> 30	4.5				
c1cc2c(s1)CCOC2CCNCc1ccc2c(c1)OCCO2 (configuration not stated)	> 5						
Cc1ccc(CN2CCC3(CC2)OCCc2sccc23)cc1C	0.08 (≈ 0.0262 µg/mL)	> 30	18.9				
Clc1ccc2c(CN3CCC4(CC3)OCCc3sccc34)c[nH]c2c1	0.31 (≈ 0.116 µg/mL)	10.3	1.3				
O=S(=O)(c1ccc2c(c1)OCCO2)N1CCC2(CC1)OCCc1sccc12	> 10						
FC(F)(F)Oc1ccc(Oc2ccc(CN3CCC4(CCCO4)CC3)cc2)cc1	1.3 (≈ 0.53 µg/mL)	0.6	1.5	133	141	96.9	
O=C(c1ccc2c(c1)OCCO2)N1CCC2(CC1)OCCc1sccc12	> 80						
